Results published in patent US20260347338A1, “PYRIMIDINE/PYRIDINE DERIVATIVES OR SALTS THEREOF AND PHARMACEUTICAL COMPOSITIONS COMPRISING THE SAME” (YUHAN CORPORATION, priority 2023, published 2026).
Where a name gives a salt, the structure may show the parent alone.

Target: T1, human recombinant HPK1 (Homo sapiens, UniProt Q92918)
T1 construct: purchased BPS Bioscience
Experiment: Inhibitory activity against human recombinant HPK1 (TR-FRET)
Assay type: biochemical
Conditions: ULight-p70S6K peptide, ATP at Km, room temperature, 1 hour, 0.32 to 1000 nM compound
How it was run: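 Recombinant human HPK1 with ULight-p70S6K peptide and ATP at Km, 1 h at room temperature in HEPES pH 7.4 buffer with Mg2+, Mn2+, EGTA, DTT; compounds 0.32–1000 nM final. EDTA stop, Eu-anti-phosphopeptide TR-FRET read (665 nm); IC50 from % inhibition versus DMSO, binned A–D at 10, 50, 100 nM.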

T1 sequence (Q92918 whole entry): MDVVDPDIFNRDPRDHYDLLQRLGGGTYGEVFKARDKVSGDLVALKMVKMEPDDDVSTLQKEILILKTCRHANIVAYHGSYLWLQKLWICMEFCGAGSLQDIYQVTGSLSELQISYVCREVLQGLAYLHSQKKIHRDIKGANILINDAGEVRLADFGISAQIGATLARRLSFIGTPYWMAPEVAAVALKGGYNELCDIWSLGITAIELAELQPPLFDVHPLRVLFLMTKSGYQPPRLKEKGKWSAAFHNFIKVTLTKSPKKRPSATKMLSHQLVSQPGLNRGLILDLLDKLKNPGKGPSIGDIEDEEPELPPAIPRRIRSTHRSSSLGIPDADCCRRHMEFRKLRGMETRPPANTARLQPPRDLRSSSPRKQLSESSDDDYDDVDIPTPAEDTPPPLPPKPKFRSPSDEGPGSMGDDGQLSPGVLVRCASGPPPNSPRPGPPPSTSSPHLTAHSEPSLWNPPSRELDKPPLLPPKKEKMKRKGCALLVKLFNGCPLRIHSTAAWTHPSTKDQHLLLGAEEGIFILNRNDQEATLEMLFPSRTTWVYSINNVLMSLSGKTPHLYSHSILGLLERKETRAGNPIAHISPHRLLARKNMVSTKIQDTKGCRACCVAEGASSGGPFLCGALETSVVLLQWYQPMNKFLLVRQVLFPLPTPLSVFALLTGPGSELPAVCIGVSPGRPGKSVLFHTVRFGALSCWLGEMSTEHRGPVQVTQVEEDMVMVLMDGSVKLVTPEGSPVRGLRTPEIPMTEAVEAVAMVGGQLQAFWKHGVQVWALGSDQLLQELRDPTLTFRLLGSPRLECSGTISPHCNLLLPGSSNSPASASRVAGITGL

SMILES	IC50 [nM]
COc1cccc(F)c1-c1nccc(Nc2cc(N3CCC[C@H](N)C3)c(-c3cnn([C@@H]4CCOC4)c3)cn2)n1 [Example 299, N-(4-((S)-3-aminopiperidin-1-yl)-5-(1-((R)-tetrahydrofuran-3-yl)-1H-pyrazol-4-yl)pyridin-2-yl)-2-(2-fluoro-6-methoxyphenyl)pyrimidin-4-amine hydrochloride]	≤ 10
COc1cccc(F)c1-c1nc(Nc2cc(N3CCC[C@H](N)C3)c(-c3cnn(C4CCOCC4)c3)cn2)ccc1C#N [Example 300, 6-((4-((S)-3-aminopiperidin-1-yl)-5-(1-(tetrahydro-2H-pyran-4-yl)-1H-pyrazol-4-yl)pyridin-2-yl)amino)-2-(2-fluoro-6-methoxyphenyl)nicotinonitrile hydrochloride]	≤ 10
COc1cccc(F)c1-c1nc(Nc2cc(N3CCC[C@H](N)C3)c(-c3cnn(C(F)F)c3)cn2)ccc1C#N [Example 301, 6-((4-((S)-3-aminopiperidin-1-yl)-5-(1-(difluoromethyl)-1H-pyrazol-4-yl)pyridin-2-yl)amino)-2-(2-fluoro-6-methoxyphenyl)nicotinonitrile hydrochloride]	≤ 10
COc1cccc(F)c1-c1nccc(Nc2cc(N3CC[C@H](N)[C@@H](F)C3)c(-c3cnn(C(F)F)c3)cn2)n1 [Example 302, N-(4-((3S,4S)-4-amino-3-fluoropiperidin-1-yl)-5-(1-(difluoromethyl)-1H-pyrazol-4-yl)pyridin-2-yl)-2-(2-fluoro-6-methoxyphenyl)pyrimidin-4-amine hydrochloride]	≤ 10
COc1cccc(F)c1-c1nccc(Nc2cc(N3C[C@@H](N)C[C@@H](F)C3)c(-c3cnn(C(F)F)c3)cn2)n1 [Example 303, N-(4-((3S,5R)-3-amino-5-fluoropiperidin-1-yl)-5-(1-(difluoromethyl)-1H-pyrazol-4-yl)pyridin-2-yl)-2-(2-fluoro-6-methoxyphenyl)pyrimidin-4-amine hydrochloride]	≤ 10
COc1cccc(F)c1-c1nccc(Nc2cc(N3C[C@@H](N)C[C@H](F)C3)c(-c3cnn(C(F)F)c3)cn2)n1 [Example 304, N-(4-((3S,5S)-3-amino-5-fluoropiperidin-1-yl)-5-(1-(difluoromethyl)-1H-pyrazol-4-yl)pyridin-2-yl)-2-(2-fluoro-6-methoxyphenyl)pyrimidin-4-amine hydrochloride]	≤ 10
COc1cccc(F)c1-c1nccc(Nc2cc(N3C[C@@H](N)C[C@@H](C(F)(F)F)C3)c(-c3cnn(C(F)F)c3)cn2)n1 [Example 305, N-(4-((3S,5R)-3-amino-5-(trifluoromethyl)piperidin-1-yl)-5-(1-(difluoromethyl)-1H-pyrazol-4-yl)pyridin-2-yl)-2-(2-fluoro-6-methoxyphenyl)pyrimidin-4-amine hydrochloride]	≤ 10
COc1cccc(F)c1-c1nccc(Nc2cc(N3C[C@@H](N)C[C@H](O)C3)c(-c3cnn(C(F)F)c3)cn2)n1 [Example 306, (3S,5S)-5-amino-1-(5-(1-(difluoromethyl)-1H-pyrazol-4-yl)-2-((2-(2-fluoro-6-methoxyphenyl)pyrimidin-4-yl)amino)pyridin-4-yl)piperidin-3-ol hydrochloride]	≤ 10
COc1cccc(F)c1-c1nccc(Nc2cc(N3CC[C@H](N)[C@H](F)C3)c(-c3cnn(C(F)F)c3)cn2)n1 [Example 307, N-(4-((3R,4S)-4-amino-3-fluoropiperidin-1-yl)-5-(1-(difluoromethyl)-1H-pyrazol-4-yl)pyridin-2-yl)-2-(2-fluoro-6-methoxyphenyl)pyrimidin-4-amine hydrochloride]	≤ 10
COc1cccc(F)c1-c1nccc(Nc2cc(N3CC[C@@H](N)[C@@H](F)C3)c(-c3cnn(C(F)F)c3)cn2)n1 [Example 308, N-(4-((3S,4R)-4-amino-3-fluoropiperidin-1-yl)-5-(1-(difluoromethyl)-1H-pyrazol-4-yl)pyridin-2-yl)-2-(2-fluoro-6-methoxyphenyl)pyrimidin-4-amine hydrochloride]	≤ 10
COc1cc(F)cc(F)c1-c1nc(Nc2cc(N3CCC[C@H](N)C3)c(-c3cnn(C4CCOCC4)c3)cn2)ccc1C#N [Example 309, 6-((4-((S)-3-aminopiperidin-1-yl)-5-(1-(tetrahydro-2H-pyran-4-yl)-1H-pyrazol-4-yl)pyridin-2-yl)amino)-2-(2,4-difluoro-6-methoxyphenyl)nicotinonitrile hydrochloride]	≤ 10
COc1cc(F)cc(F)c1-c1nc(Nc2cc(N3CCC[C@H](N)C3)c(-c3cnn(C(F)F)c3)cn2)ccc1C#N [Example 310, 6-((4-((S)-3-aminopiperidin-1-yl)-5-(1-(difluoromethyl)-1H-pyrazol-4-yl)pyridin-2-yl)amino)-2-(2,4-difluoro-6-methoxyphenyl)nicotinonitrile hydrochloride]	≤ 10
COc1cc(F)cc(F)c1-c1nccc(Nc2cc(N3CCC[C@H](N)C3)c(C#CC3(C)CCOCC3)cn2)n1 [Example 311, (S)-N-(4-(3-aminopiperidin-1-yl)-5-((4-methyltetrahydro-2H-pyran-4-yl)ethynyl)pyridin-2-yl)-2-(2,4-difluoro-6-methoxyphenyl)pyrimidin-4-amine]	≤ 10
COc1cc(F)cc(F)c1-c1nccc(Nc2cc(N3CCC[C@H](N)C3)c(C#CC3(O)CCOCC3)cn2)n1 [Example 312, (S)-4-((4-(3-aminopiperidin-1-yl)-6-((2-(2,4-difluoro-6-methoxyphenyl)pyrimidin-4-yl)amino)pyridin-3-yl)ethynyl)tetrahydro-2H-pyran-4-ol]	≤ 10
COc1cc(F)cc(F)c1-c1nccc(Nc2cc(N3CCC[C@H](N)C3)c(C#CC(C)(C)O)cn2)n1 [Example 313, (S)-4-(4-(3-aminopiperidin-1-yl)-6-((2-(2,4-difluoro-6-methoxyphenyl)pyrimidin-4-yl)amino)pyridin-3-yl)-2-methylbut-3-yn-2-ol]	≤ 10
COc1cc(F)cc(F)c1-c1nccc(Nc2cc(N3CCC[C@H](N)C3)c(C#CCCO)cn2)n1 [Example 314, (S)-4-(4-(3-aminopiperidin-1-yl)-6-((2-(2,4-difluoro-6-methoxyphenyl)pyrimidin-4-yl)amino)pyridin-3-yl)but-3-yn-1-ol]	≤ 10
COc1cccc(F)c1-c1nc(Nc2cc(N3CCC[C@H](N)C3)c(-c3cnn(C(F)F)c3)cn2)ccc1S(C)(=O)=O [Example 315, 4-((S)-3-aminopiperidin-1-yl)-5-(1-(difluoromethyl)-1H-pyrazol-4-yl)-N-(6-(2-fluoro-6-methoxyphenyl)-5-(methylsulfonyl)pyridin-2-yl)pyridin-2-amine hydrochloride]	≤ 10
COc1cccc(F)c1-c1nc(Nc2cc(N3CCC[C@H](O)C3)c(-c3cnn(CC(F)(F)F)c3)cn2)ccc1C#N [Example 316, 2-(2-fluoro-6-methoxyphenyl)-6-((4-((S)-3-hydroxypiperidin-1-yl)-5-(1-(2,2,2-trifluoroethyl)-1H-pyrazol-4-yl)pyridin-2-yl)amino)nicotinonitrile]	≤ 10
COc1cc(F)cc(F)c1-c1nc(Nc2cc(N3CCC[C@H](O)C3)c(-c3cnn(CC(F)(F)F)c3)cn2)ccc1C#N [Example 317, 2-(2,4-difluoro-6-methoxyphenyl)-6-((4-((S)-3-hydroxypiperidin-1-yl)-5-(1-(2,2,2-trifluoroethyl)-1H-pyrazol-4-yl)pyridin-2-yl)amino)nicotinonitrile]	≤ 10
COc1cccc(F)c1-c1nc(Nc2cc(N3CCC[C@H](N)C3)c(-c3cnn(CC(F)(F)F)c3)cn2)ccc1C#N [Example 318, 6-((4-((S)-3-aminopiperidin-1-yl)-5-(1-(2,2,2-trifluoroethyl)-1H-pyrazol-4-yl)pyridin-2-yl)amino)-2-(2-fluoro-6-methoxyphenyl)nicotinonitrile hydrochloride]	≤ 10
COc1cccc(F)c1-c1nc(Nc2cc(N3CCC[C@H](N)C3)c(-c3cnn(CC(C)(C)O)c3)cn2)ccc1C#N [Example 319, 6-((4-((S)-3-aminopiperidin-1-yl)-5-(1-(2-hydroxy-2-methylpropyl)-1H-pyrazol-4-yl)pyridin-2-yl)amino)-2-(2-fluoro-6-methoxyphenyl)nicotinonitrile hydrochloride]	≤ 10
COc1cc(F)cc(F)c1-c1nc(Nc2cc(N3CCC[C@H](N)C3)c(-c3cnn(CC(F)(F)F)c3)cn2)ccc1C#N [Example 320, 6-((4-((S)-3-aminopiperidin-1-yl)-5-(1-(2,2,2-trifluoroethyl)-1H-pyrazol-4-yl)pyridin-2-yl)amino)-2-(2,4-difluoro-6-methoxyphenyl)nicotinonitrile hydrochloride]	≤ 10
COc1cccc(F)c1-c1nc(Nc2cc(N3CC[C@@H](F)[C@H](N)C3)c(-c3cnn(C(F)F)c3)cn2)ccc1C#N [Example 321, 6-((4-((3R,4R)-3-amino-4-fluoropiperidin-1-yl)-5-(1-(difluoromethyl)-1H-pyrazol-4-yl)pyridin-2-yl)amino)-2-(2-fluoro-6-methoxyphenyl)nicotinonitrile hydrochloride]	≤ 10
COc1cccc(F)c1-c1nc(Nc2cc(N3CC[C@H](F)[C@H](N)C3)c(-c3cnn(C(F)F)c3)cn2)ccc1C#N [Example 322, 6-((4-((3R,4S)-3-amino-4-fluoropiperidin-1-yl)-5-(1-(difluoromethyl)-1H-pyrazol-4-yl)pyridin-2-yl)amino)-2-(2-fluoro-6-methoxyphenyl)nicotinonitrile hydrochloride]	≤ 10
COc1cccc(F)c1-c1nc(Nc2cc(N3CCC[C@H](N)C3)c(-c3ccc(N4CCOCC4)nc3)cn2)ccc1C#N [Example 323, 6-((4-((S)-3-aminopiperidin-1-yl)-6′-morpholino-[3,3′-bipyridin]-6-yl)amino)-2-(2-fluoro-6-methoxyphenyl)nicotinonitrile hydrochloride]	≤ 10
